How the values were obtained:
[1] = target: Human cGAS amino acids 155-522 (Homo sapiens (Human), UniProt Q8N884); experiment: cGAS biochemical activity assay (ATP remaining, Kinase-Glo Max luminescence); settings: human cGAS 155-522, ATP remaining (Kinase-Glo Max); read-out: cGAS IC50
[2] = tested on: cGAS/STING pathway in THP1 cells; experiment: THP1 cell-based cGAS/STING pathway activity assay (IRF-3-linked luciferase reporter); settings: Homo sapiens, THP-1
In short: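 THP1 cells carrying an IRF-3-driven luciferase reporter were read across a range of compound concentrations, and IC50 values were derived from these concentration responses; the assay upper limit was 100 μM.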

[3] = tested on: RANTES/CCL5 secretion by Trex1-KO BMM; experiment: Inhibition of RANTES/CCL5 secretion by Trex1-KO bone marrow-derived macrophages; type: cell-based, mice; set-up: key to BMM IC50 R (RANTES): A: an IC50 value less than 5 μM; B: an IC50 value between 5 and 20 μM; where an IC50 value could not be calculated from the data; settings: RANTES secretion; for IC50: Mus musculus, Macrophage, read-out: BMM IC50 R (RANTES)
Description: (§1) A cellular assay can be used to asses the compounds of the invention for their ability to inhibit cytokine production. Bone marrow macrophages harvested from mice can be used to determine response as a function of compound concentration.
(§2) The inhibition of secreted cytokine was measured in bone marrow-derived macrophages (BMMs) from diseased mice to evaluate the potency of compounds of the invention as described herein. […] To derive bone marrow macrophages, marrow extracted from the femurs and tibias were harvested from Trex1-KO mice was cultured in growth media supplemented with macrophage colony-stimulating factor (M-CSF). Differentiated BMM were harvested and frozen for subsequent experimentation. For treatment with compound C1089 (see Example 13), a frozen stock of Trex1-KO BMM was thawed and 1×10^5 cells were plated in 96 well format. BMMs were treated with a dilution series of C1089 and incubated overnight at 37° C. 5% CO2, at which point cellular supernatants were harvested and stored at −80° C. for subsequent analysis. The media used for this dilution series was without FBS. Remaining cells were evaluated for viability using Cell Titer Glo 2.0 kit according to the manufacturer instructions. BMM supernatants were evaluated for the secreted cytokine […] (RANTES/CCL5) or for secreted cytokine monocyte chemoattractant protein 1 (MCP-1/CCL2) using cytometric bead array mouse Flex Set kits (BD Biosciences). Cytokine concentration was calculated from a standard curve and normalized to vehicle (DMSO) treated cells.

[4] = tested on: MCP-1/CCL2 secretion by Trex1-KO BMM; experiment: Inhibition of MCP-1/CCL2 secretion by Trex1-KO bone marrow-derived macrophages; type: cell-based, mice; set-up: key to BMM IC50 M (MCP-1): A: an IC50 value less than 5 μM; B: an IC50 value between 5 and 20 μM; where an IC50 value could not be calculated from the data; settings: MCP-1 secretion; for IC50: Mus musculus, Macrophage, read-out: BMM IC50 M (MCP-1)
Description: as §1, §2

Chain of Human cGAS amino acids 155-522 (Q8N884 157-522): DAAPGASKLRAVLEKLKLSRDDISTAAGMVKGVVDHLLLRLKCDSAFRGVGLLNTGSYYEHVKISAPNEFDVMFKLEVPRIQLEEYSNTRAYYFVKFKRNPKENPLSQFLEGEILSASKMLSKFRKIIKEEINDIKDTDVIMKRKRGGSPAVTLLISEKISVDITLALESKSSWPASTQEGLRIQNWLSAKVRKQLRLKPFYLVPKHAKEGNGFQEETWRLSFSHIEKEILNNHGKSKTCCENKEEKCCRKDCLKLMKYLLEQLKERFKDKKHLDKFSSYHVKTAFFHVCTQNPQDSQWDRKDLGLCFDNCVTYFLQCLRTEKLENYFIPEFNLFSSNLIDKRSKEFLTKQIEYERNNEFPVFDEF

Row | IC50 [1] [µM] | IC50 [2] [µM] | BMM IC50 R (RANTES) [3] | BMM IC50 M (MCP-1) [4] | IC50 [4] [µM] | IC50 [3] [µM] | SMILES
1 | < 20 | < 20 | C | C |  |  | COc1cccc2oc(-c3c(C)[nH]c4c(-c5cc(F)cc(F)c5)c(C(F)(F)F)nn4c3=O)nc12 [Compound C1119, 3-(3,5-difluorophenyl)-6-(4-methoxybenzo[d]oxazol-2-yl)-5-methyl-2-(trifluoromethyl)pyrazolo[1,5-a]pyrimidin-7(4H)-one]
2 | < 20 | < 20 | C |  | < 5 |  | COc1cccc2oc(-c3c(SC)[nH]c4c(-c5ccccc5)c(C(F)(F)F)nn4c3=O)nc12 [Compound C1121, 6-(4-methoxybenzo[d]oxazol-2-yl)-5-(methylthio)-3-phenyl-2-(trifluoromethyl)pyrazolo[1,5-a]pyrimidin-7(4H)-one]
3 | < 20 | 20 to 100 | C | C |  |  | COc1cc(N)cc2oc(-c3c(C)[nH]c4c(-c5ccccc5)c(C(F)(F)F)nn4c3=O)nc12 [Compound C1123, 6-(6-amino-4-methoxybenzo[d]oxazol-2-yl)-5-methyl-3-phenyl-2-(trifluoromethyl)pyrazolo[1,5-a]pyrimidin-7(4H)-one]
4 | < 20 | 20 to 100 | C | C |  |  | COc1c(C#N)ccc2oc(-c3c(C)[nH]c4c(-c5ccccc5)c(C(F)(F)F)nn4c3=O)nc12 [Compound C1126, 4-methoxy-2-(5-methyl-7-oxo-3-phenyl-2-(trifluoromethyl)-4,7-dihydropyrazolo[1,5-a]pyrimidin-6-yl)benzo[d]oxazole-5-carbonitrile]
5 | < 20 | < 20 | C |  | 5 to 20 |  | COc1cccc2oc(-c3c(COC4CCCCO4)[nH]c4c(-c5ccccc5)c(C(F)(F)F)nn4c3=O)nc12 (centres unmarked) [Compound C1134, 6-(4-methoxybenzo[d]oxazol-2-yl)-3-phenyl-5-(((tetrahydro-2H-pyran-2-yl)oxy)methyl)-2-(trifluoromethyl)pyrazolo[1,5-a]pyrimidin-7(4H)-one]
6 | < 20 | < 20 | C |  | 5 to 20 |  | COc1cccc2oc(-c3c(CSC)[nH]c4c(-c5ccccc5)c(C(F)(F)F)nn4c3=O)nc12 [Compound C1136, 6-(4-methoxybenzo[d]oxazol-2-yl)-5-((methylthio)methyl)-3-phenyl-2-(trifluoromethyl)pyrazolo[1,5-a]pyrimidin-7(4H)-one]
7 | < 20 | < 20 |  |  | 5 to 20 | 5 to 20 | COCc1[nH]c2c(-c3ccccc3)c(C#N)nn2c(=O)c1-c1nc2c(OC)cccc2o1 [Compound C1139, 6-(4-methoxybenzo[d]oxazol-2-yl)-5-(methoxymethyl)-7-oxo-3-phenyl-4,7-dihydropyrazolo[1,5-a]pyrimidine-2-carbonitrile]
8 | < 20 | < 20 | C | C |  |  | COCc1[nH]c2c(-c3ccccc3)c(C#N)nn2c(=O)c1-c1nc2c(OC)cc(Cl)cc2o1 [Compound C1145, 6-(6-chloro-4-methoxybenzo[d]oxazol-2-yl)-5-(methoxymethyl)-7-oxo-3-phenyl-4,7-dihydropyrazolo[1,5-a]pyrimidine-2-carbonitrile]
9 | < 20 | < 20 |  | C |  | 5 to 20 | COCCOCc1[nH]c2c(-c3ccccc3)c(C(F)(F)F)nn2c(=O)c1-c1nc2c(OC)cccc2o1 [Compound C1151, 6-(4-methoxybenzo[d]oxazol-2-yl)-5-((2-methoxyethoxy)methyl)-3-phenyl-2-(trifluoromethyl)pyrazolo[1,5-a]pyrimidin-7(4H)-one]
10 | < 20 | < 20 | C | C |  |  | COc1ccc(N)c2oc(-c3c(C)[nH]c4c(-c5ccccc5)c(C(F)(F)F)nn4c3=O)nc12 [Compound C1154, 6-(7-amino-4-methoxybenzo[d]oxazol-2-yl)-5-methyl-3-phenyl-2-(trifluoromethyl)pyrazolo[1,5-a]pyrimidin-7(4H)-one]
11 | < 20 | > 100 | C | C |  |  | COc1cc(Cl)cc2oc(-c3c(C)[nH]c4c(-c5ccccc5)c(C#N)nn4c3=O)nc12 [Compound C1160, 6-(6-chloro-4-methoxybenzo[d]oxazol-2-yl)-5-methyl-7-oxo-3-phenyl-4,7-dihydropyrazolo[1,5-a]pyrimidine-2-carbonitrile]
12 | < 20 | < 20 | C | C |  |  | COc1nccc2oc(-c3c(C)[nH]c4c(-c5ccccc5)c(C#N)nn4c3=O)nc12 [Compound C1167, 6-(4-methoxyoxazolo[4,5-c]pyridin-2-yl)-5-methyl-7-oxo-3-phenyl-4,7-dihydropyrazolo[1,5-a]pyrimidine-2-carbonitrile]
13 | < 20 | 20 to 100 | C | C |  |  | Cc1[nH]c2c(-c3ccccc3)c(C(F)(F)F)nn2c(=O)c1-c1nc(C(=O)O)c(C2CCCCC2)o1 [Compound C1169, 5-cyclohexyl-2-(5-methyl-7-oxo-3-phenyl-2-(trifluoromethyl)-4,7-dihydropyrazolo[1,5-a]pyrimidin-6-yl)oxazole-4-carboxylic acid]
14 | < 20 | 20 to 100 | C | C |  |  | COc1cccc2oc(-c3c(CCC(=O)O)[nH]c4c(-c5ccccc5)c(C(F)(F)F)nn4c3=O)nc12 [Compound C1173, 3-(6-(4-methoxybenzo[d]oxazol-2-yl)-7-oxo-3-phenyl-2-(trifluoromethyl)-4,7-dihydropyrazolo[1,5-a]pyrimidin-5-yl)propanoic acid]
15 | < 20 | 20 to 100 | C | C |  |  | COc1cc(N)cc2oc(-c3c(C)[nH]c4c(-c5ccccc5)c(C#N)nn4c3=O)nc12 [Compound C1175, 6-(6-amino-4-methoxybenzo[d]oxazol-2-yl)-5-methyl-7-oxo-3-phenyl-4,7-dihydropyrazolo[1,5-a]pyrimidine-2-carbonitrile]
16 | < 20 | > 100 | C | C |  |  | COc1ccc(Cl)c2oc(-c3c(C)[nH]c4c(-c5ccccc5)c(C#N)nn4c3=O)nc12 [Compound C1205, 6-(7-chloro-4-methoxybenzo[d]oxazol-2-yl)-5-methyl-7-oxo-3-phenyl-4,7-dihydropyrazolo[1,5-a]pyrimidine-2-carbonitrile]
17 | < 20 | < 20 | C | C |  |  | CCOC(=O)C1CC=C(c2[nH]c3c(-c4ccccc4)c(C(F)(F)F)nn3c(=O)c2-c2nc3c(OC)cccc3o2)CC1 (centres unmarked) [Compound C1233, ethyl 4-(6-(4-methoxybenzo[d]oxazol-2-yl)-7-oxo-3-phenyl-2-(trifluoromethyl)-4,7-dihydropyrazolo[1,5-a]pyrimidin-5-yl)cyclohex-3-ene-1-carboxylate]
18 | < 20 | 20 to 100 | C | C |  |  | COCc1[nH]c2c(-c3ccccc3)c(C(F)(F)F)nn2c(=O)c1-c1nnc(C2CCCC2)o1 [Compound D1018, 6-(5-cyclopentyl-1,3,4-oxadiazol-2-yl)-5-(methoxymethyl)-3-phenyl-2-(trifluoromethyl)pyrazolo[1,5-a]pyrimidin-7(4H)-one]
19 | < 20 | > 100 | C | C |  |  | CO[C@@](c1ccccc1)(c1nnc(-c2c(C)[nH]c3c(-c4ccccc4)c(C(F)(F)F)nn3c2=O)o1)C(F)(F)F [Compound D1028, (S)-5-methyl-3-phenyl-6-(5-(2,2,2-trifluoro-1-methoxy-1-phenylethyl)-1,3,4-oxadiazol-2-yl)-2-(trifluoromethyl)pyrazolo[1,5-a]pyrimidin-7(4H)-one]
20 | < 20 | < 20 |  |  | 5 to 20 | < 5 | Cc1[nH]c2c(-c3ccccc3)c(C(F)(F)F)nn2c(=O)c1-c1nnc(C#N)o1 [Compound D1071, 5-(5-methyl-7-oxo-3-phenyl-2-(trifluoromethyl)-4,7-dihydropyrazolo[1,5-a]pyrimidin-6-yl)-1,3,4-oxadiazole-2-carbonitrile]

— US10738056B2 (Aduro BioTech, Inc., priority 2017, dated 2020)
